Source: ChEMBL document CHEMBL1157896, “A repurposing strategy identifies novel synergistic inhibitors of Plasmodium falciparum heat shock protein 90” (J Med Chem, 2010)
The source made the active and inactive calls. The rule behind the calls is not given here.

Tests used:
Plasmodium falciparum [1] = experiment: Antimalarial activity against Plasmodium falciparum 3D7 infected in human erythrocytes after 48 hrs by flow-cytometry; type: functional, organism-based; conditions: 3D7, 48 h
[2] = target: Heat shock protein HSP90 (Homo sapiens) (UniProt P07900+P08238); experiment: Displacement of bis-ANS from human Hsp90 assessed as reduction in fluorescence at 100 uM after 30 mins by fluorescent monochromator spectrophotometry; type: protein assay
Plasmodium falciparum [3] = experiment: Displacement of bis-ANS from Plasmodium falciparum 3D7 Hsp90 expressed in Escherichia coli BL21(DE3) assessed as reduction in fluorescence at 100 uM after 30 min by fluorescent monochromator spectrophotometry; type: functional; design: scale not given: the % may be the effect or the level left
Plasmodium falciparum [4] = experiment: Antimalarial activity against chloroquine-resistant Plasmodium falciparum W2 infected in human erythrocytes after 48 hrs by flow-cytometry; type: functional, organism-based; conditions: W2, 48 h
Plasmodium falciparum [5] = experiment: Antimalarial activity against multidrug-resistant Plasmodium falciparum isolate 208432 infected in human erythrocytes after 48 hrs by flow-cytometry; type: functional, organism-based; conditions: isolate 208432, 48 h

SMILES	IC50 (Plasmodium falciparum [1])	Activity [2]	Activity (Plasmodium falciparum [3])	IC50 (Plasmodium falciparum [4])	IC50 (Plasmodium falciparum [5])
NC(CP(=O)(O)O)C(=O)O (racemic)	60.3 nM	inactive	> 70%	84.4 nM	47.1 nM
C[C@@H]1CC[C@H]2[C@@H](C)C(=O)O[C@@H]3O[C@@]4(C)CC[C@@H]1[C@]32OO4 [ARTEMISININ]	6.1 nM			7.3 nM	68.3 nM
COc1ccc2c(c1)[nH]c1c(C)nccc12 [HARMINE]	50.1 nM	inactive	> 70%	28 nM	182 nM
OC(c1cc(C(F)(F)F)nc2c(C(F)(F)F)cccc12)C1CCCCN1 (stereo not given) [MEFLOQUINE]	2.1 nM			3.2 nM	
